38 compounds from patent publication EP0485890A2, “Use of 2,3-disubstituate 1-azolyl-propane for inhibiting the pathogenic growth phase of dimorph yeast cell” (HOECHST AKTIENGESELLSCHAFT, priority 1990, dated 1992) can be followed below.

SMILES strings stand for the structures. Converted amounts (≈) assume the structure as drawn.

For experiment [1], the system named is Lysophospholipase (Phospholipase B). Nature of the experiment: In vitro enzyme test: inhibition of released exoenzymes (phospholipase) of Candida albicans blastoconidia on egg-yolk agar. It is filed as cell-based. Conditions: Candida albicans Stamm 200/175. The text has this:
Als Beispiel für die Hemmung der pathogenen Phase dimorpher Hefezellen werden Ergebnisse eines in-vitro-Enzymtests angeführt, in welchen die prozentuale Hemmung freigesetzter Exoenzyme, insbesondere freigesetzter Lysophospholipase (Phospholipase B), als Maß für die Wirksamkeit bestimmt wird.
Zur Feststellung der Enzymhemmung wurde eine Suspension von Candida albicans Blastokonidien (Stamm 200/175), wobei die Keimdichte photometrisch auf eine Extinktion von 0,5 (500 nm) eingestellt war, mit Präparatelösung bzw. zur Kontrolle mit Lösungsmittellösung vermischt und zwar • a) 100 ul Präparatelösung (Suspension) • + 900 µl Keimsuspension • b) 100 µl Lösungsmittel • + 900 µl Keimsuspension • Jeweils 5 µl der 30 min bei 21 ° C inkubierten Blastokonidiensuspension wurden auf eine Agarplatte (Sabourand Agar mit Zusatz von 8 % Eigelb, 1 M NaCI, 5 mM CaC12) aufgetropft. • Die so beimpfte Platte wurde 3 Tage bei 37 ° C bebrütet.
Die Auswertung erfolgte derart, daß • 1. der Durchmesser (mm) der Candida albicans-Kolonie (behandelt und unbehandelt) sowie • 2. der Gesamtdurchmesser von Kolonie und Trübungshof, welcher durch Exoenzyme verursacht wurde (behandelt und unbehandelt) bestimmt wurde.
Aus der Bestimmung des Quotienten von Präparate- und Kontrollgruppe ergab sich ein Wert, der als Maß für die Enzymaktivität anzusehen war.

For a further experiment, the system named is Candida albicans. Nature of the experiment: Minimal inhibitory concentration (MHK) in vitro. Type of experiment: cell-based. The note with it: read-out: MHK von Candida albicans. The source says: Außerdem wird deutlich, daß zur Erreichung einer ausgeprägten Hemmwirkung der Phospholipase-Aktivität Dosen ausreichen, die deutlich unterhalb derjenigen liegen, die zur Hemmung des Pilzwachstums in vitro nötig sind und welche bisher für eine reine antimykotische Therapie als unbedingt erforderlich erachtet wurden (sihe MHK-Werte von Candida albicans einiger ausgewählter Derivate).

On to `CC(C)N(CC(Cn1ccnc1)OCc1ccc(Cl)cc1)c1ccc(Cl)c(Cl)c1` (stereo not drawn) [1.3], for which the “% Hemmung der Phospholipase” value in experiment [1] (Konzentration 10 µg/ml) was 25%; in experiment [1] (Konzentration 50 µg/ml), 100%. For the same compound, the MIC with Candida albicans amounted to 125 µg/mL (≈ 276 µM).

Regarding `OC(CN(Cc1ccc(Cl)cc1)c1ccc(Cl)cc1)Cn1ccnc1` (stereo not drawn) [1.5], in experiment [1] (Konzentration 50 µg/ml), the “% Hemmung der Phospholipase” value worked out at 100%.

Turning to `C=CCN(CC(Cn1ccnc1)OCc1ccc(Cl)cc1)c1ccc(Cl)cc1` (stereo not drawn) [1.34], the results for the “% Hemmung der Phospholipase” value in experiment [1] (Konzentration 10 µg/ml) and in experiment [1] (Konzentration 50 µg/ml) were 10,7% and 100%, respectively.

For the compound `OC(CN(Cc1ccc(Cl)cc1)Cc1ccc(Cl)cc1)Cn1ccnc1` (stereo not drawn) [1.8], the “% Hemmung der Phospholipase” value in experiment [1] (Konzentration 50 µg/ml) turned out to be 100%.

For the compound `CCCCCCCCN(CC(Cn1ccnc1)OCc1ccc(Cl)cc1)c1ccc(Cl)cc1` (stereo not drawn) [1.35], the “% Hemmung der Phospholipase” value in experiment [1] (Konzentration 10 µg/ml) is given as 45%; in experiment [1] (Konzentration 50 µg/ml), 100%. Besides, the MIC in the experiment with Candida albicans is greater than 125 µg/mL.

With `CC(=NOCC(Cn1ccnc1)OCc1ccc(Cl)cc1Cl)c1ccc(Cl)cc1` (stereo not drawn) [1.23], the “% Hemmung der Phospholipase” value in experiment [1] (Konzentration 10 µg/ml) is 35,7%; in experiment [1] (Konzentration 50 µg/ml) it was 100%.

For `Clc1ccc(CN2CCN(C(COc3ccc(Cl)cc3Cl)Cn3ccnc3)CC2)cc1` (stereo not drawn) [1.30], the “% Hemmung der Phospholipase” value in experiment [1] (Konzentration 50 µg/ml) was found to be 100%.

Take `CCCCN(CC(Cn1ccnc1)OCc1ccc(Cl)cc1)c1ccc(Cl)cc1` (stereo not drawn) [1.33]: the “% Hemmung der Phospholipase” value in experiment [1] (Konzentration 10 µg/ml) is 24%; in experiment [1] (Konzentration 50 µg/ml) it was 80%. Besides, the MIC in the experiment with Candida albicans was 125 µg/mL (≈ 289 µM).

Regarding `COC(CN(Cc1ccc(Cl)cc1)c1ccc(Cl)cc1)Cn1ccnc1` (stereo not drawn) [1.6], the “% Hemmung der Phospholipase” value in experiment [1] (Konzentration 50 µg/ml) stood at 100%.

`Clc1ccc(COC(CN2CCCc3ccccc32)Cn2ccnc2)cc1` (stereo not drawn) [1.43]: the “% Hemmung der Phospholipase” value was found to be 50% in experiment [1] (Konzentration 10 µg/ml) and 100% in experiment [1] (Konzentration 50 µg/ml).

Consider `CCCCCCCCOC(CN(CC)c1ccc(Cl)cc1)Cn1ccnc1` (stereo not drawn) [1.40], for which the “% Hemmung der Phospholipase” value is reported as 75,0% in experiment [1] (Konzentration 10 µg/ml) and 100% in experiment [1] (Konzentration 50 µg/ml). Besides, in the experiment on Candida albicans, the MIC was determined as 125 µg/mL (≈ 319 µM).

Turning to `CN(CC(Cn1ccnc1)OCc1ccc(Cl)cc1Cl)c1ccc(Cl)cc1` (stereo not drawn) [1.12], the “% Hemmung der Phospholipase” value in experiment [1] (Konzentration 50 µg/ml) was 100%.

Take `CCN(CC(Cn1ccnc1)OCC=C(C)CCC=C(C)C)c1ccc(Cl)cc1` (stereo not drawn) [1.1]: the figures for the “% Hemmung der Phospholipase” value in experiment [1] (Konzentration 1 µg/ml), in experiment [1] (Konzentration 5 µg/ml) and in experiment [1] (Konzentration 10 µg/ml) were 15%, 60% and 100%, respectively. In the experiment with Candida albicans, the MIC is greater than 125 µg/mL.

As to `Clc1ccc(COC(CNc2ccc(Cl)cc2)Cn2ccnc2)cc1` (stereo not drawn) [1.13], the figures for the “% Hemmung der Phospholipase” value in experiment [1] (Konzentration 50 µg/ml) and in experiment [1] (Konzentration 100 µg/ml) were 26% and 33%, respectively.

`CCN(CC(Cn1ccnc1)OCc1ccc(Cl)cc1)c1cccc(C(F)(F)F)c1` (stereo not drawn) [1.17]: the “% Hemmung der Phospholipase” value in experiment [1] (Konzentration 50 µg/ml) was determined as 12%; in experiment [1] (Konzentration 100 µg/ml), 38%.

With `COC(CN(Cc1ccc(Cl)cc1Cl)c1ccc(Cl)cc1)Cn1ccnc1` (stereo not drawn) [1.37], the “% Hemmung der Phospholipase” value in experiment [1] (Konzentration 10 µg/ml) is recorded as 16,7%.

Take `CCN(CC(Cn1ccnc1)OCc1cccc(Cl)c1)c1ccc(Cl)cc1` (stereo not drawn) [1.21]: the “% Hemmung der Phospholipase” value is on record as 12,7% in experiment [1] (Konzentration 10 µg/ml) and 50% in experiment [1] (Konzentration 50 µg/ml). Besides, the MIC in the experiment on Candida albicans amounted to 125 µg/mL (≈ 309 µM).

Regarding `CCN(CC(Cn1ccnc1)OCc1ccc(Cl)cc1)c1ccc(Cl)cc1Cl` (stereo not drawn) [1.18], in experiment [1] (Konzentration 50 µg/ml), the “% Hemmung der Phospholipase” value is recorded as 60%.

For `Clc1ccc(OCC(Cn2ccnc2)N2CCN(Cc3ccc(Cl)cc3Cl)CC2)cc1` (stereo not drawn) [1.31], the “% Hemmung der Phospholipase” value in experiment [1] (Konzentration 50 µg/ml) is recorded as 38,6%; in experiment [1] (Konzentration 100 µg/ml), 90%.

As for `CCN(CC(Cn1ccnc1)OCc1ccc(Cl)cc1)c1ccc(Cl)cc1` (stereo not drawn) [1.2], the “% Hemmung der Phospholipase” value in experiment [1] (Konzentration 50 µg/ml) was 90%.

Take `CCN(CC(Cn1ccnc1)OCc1ccc(Cl)cc1Cl)c1ccc(Cl)c(Cl)c1` (stereo not drawn) [1.16]: the “% Hemmung der Phospholipase” value in experiment [1] (Konzentration 50 µg/ml) was found to be 100%. The MIC with Candida albicans amounted to 125 µg/mL (≈ 264 µM).

In the case of `CCN(CC(O)Cn1ccnc1)c1ccc(Cl)c(Cl)c1` (stereo not drawn) [1.41], the “% Hemmung der Phospholipase” value is 33,3% in experiment [1] (Konzentration 10 µg/ml) and 100% in experiment [1] (Konzentration 50 µg/ml).

Regarding `CC(=NOCC(Cn1ccnc1)OCc1ccc(Cl)cc1)c1ccc(Cl)cc1` (stereo not drawn) [1.24], the results for the “% Hemmung der Phospholipase” value in experiment [1] (Konzentration 10 µg/ml) and in experiment [1] (Konzentration 50 µg/ml) were 24,3% and 50%, respectively.

Regarding `Clc1ccc(SC(COc2ccc(Cl)cc2Cl)Cn2ccnc2)cc1` (stereo not drawn) [1.10], in experiment [1] (Konzentration 50 µg/ml), the “% Hemmung der Phospholipase” value amounted to 50%.

On to `Clc1ccc(N2CCN(C(COc3ccc(Cl)cc3Cl)Cn3ccnc3)CC2)cc1` (stereo not drawn) [1.11], for which, in experiment [1] (Konzentration 50 µg/ml), the “% Hemmung der Phospholipase” value turned out to be 100%.

Consider `Clc1ccc(COC(CN2CCN(c3ccc(Cl)cc3)CC2)Cn2ccnc2)cc1` (stereo not drawn) [1.4], for which, in experiment [1] (Konzentration 50 µg/ml), the “% Hemmung der Phospholipase” value amounted to 100%.

On to `CCN(CC(Cn1ccnc1)OCc1ccc(Cl)cc1Cl)c1ccc(Cl)cc1` (stereo not drawn) [1.22], for which the “% Hemmung der Phospholipase” value in experiment [1] (Konzentration 10 µg/ml) is 23,1%; in experiment [1] (Konzentration 50 µg/ml), 100%. Besides, in the experiment with Candida albicans, the MIC was 125 µg/mL (≈ 285 µM).

For `CCN(CC(Cn1ccnc1)Sc1ccc(Cl)cc1)c1ccc(Cl)c(Cl)c1` (stereo not drawn) [1.15], the “% Hemmung der Phospholipase” value in experiment [1] (Konzentration 50 µg/ml) is listed as 100%. For the same compound, in the experiment on Candida albicans, the MIC was 125 µg/mL (≈ 284 µM).

With `CCN(CC(Cn1ccnc1)OCc1ccc(Cl)cc1)c1ccc(Cl)c(Cl)c1` (stereo not drawn) [1.14], the “% Hemmung der Phospholipase” value in experiment [1] (Konzentration 50 µg/ml) is given as 30%; in experiment [1] (Konzentration 100 µg/ml), 100%.

Turning to `CC(=NOCC(Cn1ccnc1)OCc1ccc(Cl)cc1Cl)c1ccc(Cl)cc1Cl` (stereo not drawn) [1.32], the “% Hemmung der Phospholipase” value is 18,2% in experiment [1] (Konzentration 10 µg/ml) and 100% in experiment [1] (Konzentration 50 µg/ml). Further, the MIC in the experiment with Candida albicans came to 125 µg/mL (≈ 257 µM).

As for `CC(=NOCC(Cn1ccnc1)Sc1ccc(Cl)cc1)c1ccc(Cl)cc1` (stereo not drawn) [1.26], the “% Hemmung der Phospholipase” value in experiment [1] (Konzentration 10 µg/ml) came out at 50%; in experiment [1] (Konzentration 50 µg/ml) it was 90%.

For `Clc1ccc(N2CCN(C(COCc3ccc(Cl)cc3Cl)Cn3ccnc3)CC2)cc1` (stereo not drawn) [1.20], in experiment [1] (Konzentration 50 µg/ml), the “% Hemmung der Phospholipase” value worked out at 100%.

With `Clc1ccc(OCC(Cn2ccnc2)N2CCN(c3ccccc3)CC2)cc1` (stereo not drawn) [1.9], in experiment [1] (Konzentration 50 µg/ml), the “% Hemmung der Phospholipase” value worked out at 100%.

For the compound `CCN(CC(Cn1ccnc1)OCc1ccc(Cl)cc1Cl)c1cccc(Cl)c1` (stereo not drawn) [1.28], the “% Hemmung der Phospholipase” value in experiment [1] (Konzentration 50 µg/ml) was 61,5%; in experiment [1] (Konzentration 100 µg/ml) it was 100%. For the same compound, the MIC with Candida albicans was determined as 125 µg/mL (≈ 285 µM).

On to `CC(=NOCC(Cn1ccnc1)OCc1ccc(Cl)cc1)c1ccc(Cl)cc1Cl` (stereo not drawn) [1.29], for which the figures for the “% Hemmung der Phospholipase” value in experiment [1] (Konzentration 10 µg/ml) and in experiment [1] (Konzentration 50 µg/ml) were 20,6% and 100%, respectively.

As to `CCN(CC(Cn1ccnc1)SCc1ccc(Cl)cc1)c1cccc(C(F)(F)F)c1` (stereo not drawn) [1.19], the “% Hemmung der Phospholipase” value in experiment [1] (Konzentration 50 µg/ml) is 71,4%. Further, the MIC with Candida albicans was found to be 125 µg/mL (≈ 275 µM).

Regarding `CCN(CC(Cn1ccnc1)OCc1ccc(Cl)cc1)c1cccc(Cl)c1` (stereo not drawn) [1.25], the “% Hemmung der Phospholipase” value in experiment [1] (Konzentration 10 µg/ml) is given as 27,3%; in experiment [1] (Konzentration 50 µg/ml), 60%.

On to `Clc1ccc(COC(CN2CCCc3ccccc32)Cn2ccnc2)c(Cl)c1` (stereo not drawn) [1.42], for which the “% Hemmung der Phospholipase” value in experiment [1] (Konzentration 50 µg/ml) turned out to be 100%.
